Assay results: publication PMC8284473, “Preliminary Characterization of NP339, a Novel Polyarginine Peptide with Broad Antifungal Activity” (Antimicrobial Agents and Chemotherapy, 2021)
Converted amounts (≈) assume the structure as drawn. Peptide text beside a SMILES is read from it.

Columns and labels:
C. albicans NCTC 3179 = type: cell-based, Candida albicans; conditions: NCTC 3179, 24 h
Protocol: MIC values were determined following the CLSI-approved Reference Method for Broth Dilution Antifungal Susceptibility Testing of Yeasts (approved standard M27-A3) ([32]) in RPMI 1640 medium (Sigma, Dorset, United Kingdom) at 35°C. For all filamentous fungi, the CLSI standard M38-A2 ([33]) was followed, in RPMI 1640 medium at 35°C. Cell growth of all fungi was followed by measuring the optical density at 530 nm (OD530) using the Powerwave XS plate reader (Biotek, Swindon, United Kingdom).

C. albicans = experiment: Time-kill assay in culture media; type: cell-based, Candida albicans; conditions: C. albicans (n = 2), inoculum 1 × 10^6 to 5 × 10^6 cells/ml, RPMI 1640, 30°C
Protocol: The tested antifungals were prepared at twice the required concentration. Then, 1 ml of the inoculum was added to 1 ml of the antifungal solution and incubated at 30°C. Every hour over the course of 8 h, 20 μl of the culture was removed and 10-fold serial dilutions were prepared (from 1 × 10^−1 to 1 × 10^−7). Then, 50 μl of each dilution was plated on SAB agar (Sigma) in triplicate. […] The colonies were counted, and the percentage killed was determined based on the reduction in the number of CFU/ml in the treated samples compared with the vehicle-treated, untreated controls.

C. albicans AM2003-0182 [1] = experiment: MIC (CLSI) of the agents used for TEM; type: cell-based, Candida albicans; conditions: standard CLSI methods
C. albicans AM2003-0182 [2] = experiment: Transmission electron microscopy of planktonic cells; type: cell-based, Candida albicans; conditions: 1× MIC, 30 min exposure
Protocol: For the TEM analysis, an overnight culture of C. albicans AM2003-0182 was diluted to a density of 1 × 10^8 cells/ml in 2× RPMI 1640 medium, and the mixture was incubated at 35°C for 1 h. The cells were then washed three times in sterile water and once in 0.01 M sodium phosphate buffer. […] The cells were then fixed in 2.5% (vol/vol) glutaraldehyde and stored at 4°C before analysis. For TEM analysis, the cells were dehydrated in an ethanol and acetone series before being embedded in […] resin, stained with uranyl acetate/lead citrate stains to improve contrast, sectioned to a 90-nm thickness, and mounted onto copper grids for TEM analysis. TEM micrographs were acquired using a JEM-1400 Plus JEOL transmission electron microscope. Microscopy was performed in the Microscopy and Histology Core Facility at the University of Aberdeen (United Kingdom).

C. glabrata AM2007/0125 = type: cell-based, Candida glabrata; conditions: 30 passages in 0.25× MIC of the same antifungal, passage 0 = 1, average of three independent replicates
Protocol: (§1) Cell growth of all fungi was followed by measuring the optical density at 530 nm (OD530) using the Powerwave XS plate reader (Biotek, Swindon, United Kingdom).
(§2) The fungal inoculum was prepared according to the CLSI standard M27-A3 ([32]). For the analysis, 100 μl of the antifungal stock was added to a 96-well polystyrene plate in triplicate. […] The passaging was repeated 30 times. Every five passages, a full MIC analysis was done, as specified above.

[3] = system: C. tropicalis AM2005/0568; type: cell-based, Candida tropicalis; conditions: 30 passages in 0.25× MIC of the same antifungal, passage 0 = 1, average of three independent replicates
Protocol: as §1, §2

A. fumigatus conidia = experiment: Time-kill assay in culture media; type: cell-based, Aspergillus fumigatus; conditions: A. fumigatus conidia (n = 2), inoculum 1 × 10^5 cells/ml, antibiotic medium 3
Protocol: (§3) For Candida spp., the cells were grown for at least 18 to 24 h at 30°C, until visible growth was observed. The cells were then centrifuged and resuspended in sterile distilled H2O and diluted to the 0.5 McFarland standard density using 2× RPMI 1640 medium. The tested antifungals were prepared at twice the required concentration. Then, 1 ml of the inoculum was added to 1 ml of the antifungal solution and incubated at 30°C. Every hour over the course of 8 h, 20 μl of the culture was removed and 10-fold serial dilutions were prepared (from 1 × 10^−1 to 1 × 10^−7). Then, 50 μl of each dilution was plated on SAB agar (Sigma) in triplicate. The plates were incubated at 30°C until colonies were observed on the control plates with vehicle-treated fungi. The colonies were counted, and the percentage killed was determined based on the reduction in the number of CFU/ml in the treated samples compared with the vehicle-treated, untreated controls.
For A. fumigatus, a subculture was grown on a SAB agar (Sigma) slant for 72 h at 35°C until sporulation. A. fumigatus cells were harvested from the slant into 0.15 M NaCl (Fisher Scientific UK, Ltd.), and conidia were isolated by passing through an EASYStrainer cell sieve (70-μm pore; Greiner Bio-One, Gloucester, United Kingdom) The conidial suspension was diluted to 1 × 10^5 CFU/ml in 2× antibiotic medium 3 (Oxoid). For germling analysis, the conidial suspension was incubated for 8 h at 35°C prior to analysis; for conidial experiments, it was used immediately. The experiment was performed as described for Candida spp.

C. auris DSMZ1092 = type: cell-based, Candida auris; conditions: 30 passages in 0.25× MIC of the same antifungal, passage 0 = 1, average of three independent replicates
Protocol: as §1, §2

C. auris = experiment: Time-kill assay in culture media; type: cell-based, Candida auris; conditions: C. auris (n = 1), inoculum 1 × 10^6 to 5 × 10^6 cells/ml
Protocol: as §3, with “The plates were incubated at 30°C until colonies were observed on the control plates with vehicle-treated fungi.” left out

C. albicans SC5314 = type: cell-based, Candida albicans; conditions: 30 passages in 0.25× MIC of the same antifungal, MIC at passage 0 normalized to 1, average of three independent replicates
Protocol: as §1, §2

Molecule: N=C(N)NCCC[C@H](NC(=O)[C@H](CCCNC(=N)N)NC(=O)[C@@H](N)CCCNC(=N)N)C(=O)O [RRR] (H-Arg-Arg-Arg-OH)
- MIC (C. albicans NCTC 3179): >2,048 μM

Molecule: OC(Cn1cncn1)(Cn1cncn1)c1ccc(F)cc1F [Fluconazole]
- Time of kill (time taken to kill 3 logs) (C. albicans; final concn 32 mg/liter = 32× MIC): 6 h

Molecule: human β-defensin 2 (GIGDPVTCLKSGAICHPVFCPRRYKQIGTCGLPGTKCCKKP; UniProt O15263 24-64, looked up) [endogenous human host defense peptide used as comparator in TEM]
- MIC (1× MIC, final concentration used for TEM) (C. albicans AM2003-0182 [1]): 25 µg/mL
- Cell destruction (lysis) seen by TEM (C. albicans AM2003-0182 [2]): not observed

Molecule: C[C@@H]1[C@H](O)[C@@H](C)/C=C/C=C/C=C/C=C/C=C/C=C/C=C/[C@H](O[C@@H]2O[C@H](C)[C@@H](O)[C@H](N)[C@@H]2O)C[C@@H]2O[C@](O)(C[C@@H](O)C[C@@H](O)[C@H](O)CC[C@@H](O)C[C@@H](O)CC(=O)O[C@H]1C)C[C@H](O)[C@H]2C(=O)O [Amphotericin B]
- Fold change in antifungal MIC at passage 30 (C. glabrata AM2007/0125): 1
- Fold change in antifungal MIC at passage 30 [3]: 4
- Time of kill (time taken to kill 2 logs) (A. fumigatus conidia; final concn 2–8 mg/liter = 4–16× MIC): 48 h
- Fold change in antifungal MIC at passage 30 (C. auris DSMZ1092): 4
- Time of kill (time taken to kill 3 logs) (C. auris; final concn 32 mg/liter = 16× MIC (amphotericin B)): 4 h
- Fold change in antifungal MIC at passage 30 (C. albicans SC5314): 4

Molecule: C[C@@H](c1ncncc1F)[C@](O)(Cn1cncn1)c1ccc(F)cc1F [Voriconazole]
- Time of kill (time taken to kill 2 logs) (A. fumigatus conidia; final concn 2–8 mg/liter = 16× MIC): 48 h

Molecule: CC[C@@H]([C@H](C)O)n1ncn(-c2ccc(N3CCN(c4ccc(OC[C@@H]5CO[C@@](Cn6cncn6)(c6ccc(F)cc6F)C5)cc4)CC3)cc2)c1=O [Posaconazole]
- Time of kill (time taken to kill 2 logs) (A. fumigatus conidia; final concn 4 mg/liter = 16× MIC): 24 h

Molecule: N=C(N)NCCC[C@H](NC(=O)[C@H](CCCNC(=N)N)NC(=O)[C@H](CCCNC(=N)N)NC(=O)[C@H](CCCNC(=N)N)NC(=O)[C@H](CCCNC(=N)N)NC(=O)[C@H](CCCNC(=N)N)NC(=O)[C@H](CCCNC(=N)N)NC(=O)[C@H](CCCNC(=N)N)NC(=O)[C@H](CCCNC(=N)N)NC(=O)[C@H](CCCNC(=N)N)NC(=O)[C@@H](N)CCCNC(=N)N)C(=O)O
- MIC (C. albicans NCTC 3179): 8 µM (≈ 13.9 µg/mL)

Molecule: N=C(N)NCCC[C@H](NC(=O)[C@H](CCCNC(=N)N)NC(=O)[C@H](CCCNC(=N)N)NC(=O)[C@H](CCCNC(=N)N)NC(=O)[C@@H](N)CCCNC(=N)N)C(=O)O [RRRRR] (H-RRRRR-OH)
- MIC (C. albicans NCTC 3179): >2,048 μM

Molecule: CC[C@H](C)C[C@H](C)CCCCCCCCC(=O)N[C@H]1C[C@@H](O)[C@@H](NCCN)NC(=O)[C@@H]2[C@@H](O)CCN2C(=O)[C@H]([C@H](O)CCN)NC(=O)[C@H]([C@H](O)[C@@H](O)c2ccc(O)cc2)NC(=O)[C@@H]2C[C@@H](O)CN2C(=O)[C@H]([C@@H](C)O)NC1=O [Caspofungin]
- Fold change in antifungal MIC at passage 30 (C. glabrata AM2007/0125): 1
- MIC (1× MIC, final concentration used for TEM) (C. albicans AM2003-0182 [1]): 0.5 µg/mL
- Fold change in antifungal MIC at passage 30 [3]: 8
- Time of kill (time taken to kill 2 logs) (A. fumigatus conidia; final concn 2–32 mg/liter = 1–16× MIC): 48 h
- Cell destruction (lysis) seen by TEM (C. albicans AM2003-0182 [2]): not observed
- Time of kill (time taken to kill 3 logs) (C. albicans; final concn 1 mg/liter = 4× MIC): 4 h
- Fold change in antifungal MIC at passage 30 (C. auris DSMZ1092): 1
- Time of kill (time taken to kill 3 logs) (C. auris; final concn 16 mg/liter = 16× MIC): 6–24 h
- Fold change in antifungal MIC at passage 30 (C. albicans SC5314): 4

Molecule: N=C(N)NCCC[C@H](NC(=O)[C@H](CCCNC(=N)N)NC(=O)[C@H](CCCNC(=N)N)NC(=O)[C@H](CCCNC(=N)N)NC(=O)[C@H](CCCNC(=N)N)NC(=O)[C@H](CCCNC(=N)N)NC(=O)[C@@H](N)CCCNC(=N)N)C(=O)O [RRRRRRR]
- MIC (C. albicans NCTC 3179): >2,048 μM

Molecule: N=C(N)NCCC[C@H](NC(=O)[C@H](CCCNC(=N)N)NC(=O)[C@H](CCCNC(=N)N)NC(=O)[C@H](CCCNC(=N)N)NC(=O)[C@H](CCCNC(=N)N)NC(=O)[C@H](CCCNC(=N)N)NC(=O)[C@H](CCCNC(=N)N)NC(=O)[C@H](CCCNC(=N)N)NC(=O)[C@@H](N)CCCNC(=N)N)C(=O)O
- MIC (C. albicans NCTC 3179): 2,048 μM
